Experiments:
[1] = tested on: SCP28 tumor cells cocultured with MC3T3-E1 osteoblasts; assay: Osteoblast coculture tumor cell quantification by luciferase assay; format: cell-based, human; details: luciferase assay after 6 days; MRK-003 1 μM or 5 μM; anti-IL-6 0.5 and 1.0 μg/ml
Protocol: MC3T3-E1 cells were seeded at 2×10^5 cells/well in 12-well plates. After confluence was achieved, luciferase/GFP-labeled (GFP+) control and JAG1 OE cells were added at 1×10^4 cells/well in triplicate and treated with DMSO or 1 μM MRK-003. Media supplemented with appropriate drugs were changed every 2 days. After 6 days the coculture was subjected to a luciferase assay to selectively quantify the number of tumor cells. These values were normalized against luciferase quantification of 12-well plates seeded with tumor cells alone.
For transfection experiments, MC3T3-E1 osteoblasts were seeded at 2×10^5 cells/well in 12-well plates and grown to 95% confluence. […] Following 6 days, the coculture was lysed and subjected to a luciferase assay to selectively quantify the number of tumor cells. For gene expression analysis, RNA from cocultures was collected in RLT lysis buffer, extracted with RNeasy mini kit (Qiagen), and subjected to quantitative RT-PCR.
For in vitro experiments, GSI-IX (Calbiochem) and TGFβ Receptor 1 (EMD Biosciences 616451) were dissolved in DMSO. […] RNA and protein were collected and analyzed for JAGGED1 expression as described above. […]

[2] = tested on: Notch target genes and IL-6; assay: Species-specific qRT-PCR of the stromal compartment of bone metastases; format: in vivo; details: mouse-specific qRT-PCR; FIG. 17A
Protocol: RNA from in vitro cultured cells or flow cytometry-separated cells was collected in RLT lysis buffer and extracted with RNeasy mini kit (Qiagen). RNA extraction from in vivo tissue samples was performed using Trizol (Invitrogen) according to the manufacturer's protocol. cDNA synthesis of RNA was performed using Superscript III First-Strand (Invitrogen). Quantitative RT-PCR was performed using Power Syber Green PCR Master Mix (Applied Biosystems) with the ABI Prism 7900HT thermocycler (Applied Biosystems) according to the manufacturer's protocol. A standard curve for each gene was generated by serial dilutions of a standard. Values were then normalized by the amount of GAPDH or β-actin in each sample. For in vivo samples, species-specific primers were employed for gene expression analysis in the tumor compartment (human) versus stroma compartment (mouse).

[3] = tested on: pre-osteoclast Raw 264.7 cells; assay: Osteoclastogenesis coculture assay (TRAP staining); format: cell-based, mouse
Protocol: After seeding 5×10^4 control or JAG1 OE tumor cells/well into 12-well plates, murine pre-osteoclast Raw 264.7 (2×10^5 cells/well) or MOCP5 (5×10^5 cells/well) cells in media containing 30 ng/ml RANKL and DMSO or 1 μM MRK-003 were added the next day. Media were changed every 2 days. TRAP staining was performed on day 6 using a leukocyte acid phosphatase kit (Sigma). TRAP^+-multinucleated cells were scored as mature osteoclasts. The number of nuclei per osteoclast was quantified using TRAP-stained images. Mouse specific qRT-PCR primers were used to selectively quantify Raw264.7 osteoclast gene expression levels after 6 days of coculture (see Table 1 below).
For primary osteoclast coculture assays, bone marrow cells were flushed out from femora and tibiae of 4- to 6-week-old wild-type FVB mice and plated in basal culture medium overnight. The next day, nonadherent cells were added at 1×10^6/well to 12-well plates that were previously seeded with either control or JAG1 OE tumor cells supplemented with 50 ng/ml RANKL and 50 ng/ml M-CSF. Medium was changed every 3 days. TRAP staining and scoring were performed on days 10-12.

[4] = tested on: MC3T3-E1 osteoblasts; assay: Microarray gene expression profiling of FACS-separated MC3T3-E1 osteoblasts; format: cell-based, mouse; details: FIG. 11B
Excerpt: For microarray analysis the quality of the FACS-separated MC3T3-E1 RNA samples was monitored using the 2100 bioanalyzer (Agilent) before gene expression profiling with the Agilent mouse […] microarrays. To find genes regulated by JAGGED1 and MRK-003 in osteoblasts, expression data of MC3T3-E1 under the indicated coculture and treatment conditions were generated and normalized by the array median, and probes were filtered by the expression levels. Probes with >2-fold changes in MC3T3-E1 cells cocultured with JAG1 OE tumor cells relative to vector-control tumor cells were identified as the regulated genes.

O=S1(=O)N[C@@]2(CN1CC(F)(F)F)[C@@H]1CC[C@H]2Cc2ccc(/C=C/CN3CCC(C(F)(F)F)CC3)cc2C1 [MRK-003] was tested, and the “growth advantage of JAG1 OE tumor cells in osteoblast coculture” value [1] was “abolished”, the “expression levels of Notch target genes and IL-6 in the stromal compartment of bone metastases” value [2] was “significantly reduced” and the “TRAP+ osteoclasts in JAG1 OE cocultures” value ([3]; 15-fold increase by JAG1 OE relative to controls, 1 μM MRK-003, FIG. 15A) was “essentially abolished”. For the same compound, the “mRNA expression of osteoclast differentiation markers in Raw 264.7 cells” value ([3]; JAG1 OE cocultures) was “suppressed”, the “osteoclast size and number of nuclei” value ([3]; cocultures with Raw 264.7, FIG. 15C) was “smaller osteoclasts with fewer nuclei” and the “Acp5 (mouse gene encoding TRAP) mRNA levels, delayed initiation of treatment (Late)” value ([3]; treatment 2 days after seeding, FIG. 15B) was “failed to fully rescue”. The “123 genes activated at least 3-fold in MC3T3-E1 by JAG1 OE coculture” value [4] was “concomitantly downregulated”.
